In article PMC12295440, “C-Terminal Analogues of Camostat Retain TMPRSS2 Protease Inhibition: New Synthetic Directions for Antiviral Repurposing of Guanidinium-Based Drugs in Respiratory Infections” (International Journal of Molecular Sciences, 2025):
Values joined by “and” are separate entries in the source; they are usually repeats but may differ in a detail not shown here. Identical values can stand only once.

Target: T1, TMPRSS2 (Homo sapiens, UniProt O15393)
T1 construct: purchased BPS Bioscience 780837
Experiment: TMPRSS2 fluorogenic protease inhibition assay (BPS Bioscience kit)
Format: biochemical
Settings: for IC50: fluorogenic substrate, 30 min pre-incubation at room temperature, average of two independent experiments in duplicate (N = 4), read-out: IC50, in vitro TMPRSS2 enzyme inhibition

T1 sequence (O15393 whole entry): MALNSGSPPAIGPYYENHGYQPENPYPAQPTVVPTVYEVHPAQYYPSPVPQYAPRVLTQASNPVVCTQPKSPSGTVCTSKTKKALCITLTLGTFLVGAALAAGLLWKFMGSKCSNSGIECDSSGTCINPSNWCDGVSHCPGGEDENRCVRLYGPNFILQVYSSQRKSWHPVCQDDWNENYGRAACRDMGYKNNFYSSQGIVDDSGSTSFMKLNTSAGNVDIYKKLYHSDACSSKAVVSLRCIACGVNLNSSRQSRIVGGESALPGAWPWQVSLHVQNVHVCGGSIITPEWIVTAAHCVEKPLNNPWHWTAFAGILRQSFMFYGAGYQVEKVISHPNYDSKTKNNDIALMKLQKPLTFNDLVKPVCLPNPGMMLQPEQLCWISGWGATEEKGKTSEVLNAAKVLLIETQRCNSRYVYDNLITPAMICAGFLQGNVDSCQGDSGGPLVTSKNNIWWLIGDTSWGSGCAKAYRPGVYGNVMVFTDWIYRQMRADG

Compound | IC50 | TMPRSS2 inhibition (in words) (fluorogenic assay, concentrations 0.007-0.1054 µM)
CNC(=O)COC(=O)Cc1ccc(OC(=O)c2ccc(NC(=N)N)cc2)cc1 [Compound 1c] | 1.27 nM and 1.3 nM | 
CN(C)C(=O)CNC(=O)Cc1ccc(NC(=O)c2ccc(NC(=N)N)cc2)cc1 [Compound 1e] |  | fell out of the range of the assay
N=C(N)Nc1ccc(C(=O)Oc2ccc(CC(=O)OCC(=O)N3CCOCC3)cc2)cc1 [Compound 1d] | 1.79 nM and 1.8 nM | 
